Test results: the NIST ThermoML archive (doi:10.1016/j.jct.2009.04.015)
Where “and” joins values, the source holds several entries; their conditions need not be identical. Equal values may be shown once.

Conditions: Crystal, Calculated from knudsen effusion weight loss

Cc1c(O)cccc1O [1,3-dihydroxy-2-methylbenzene]
Conditions	vapor or sublimation pressure
309.22 K	0.000109 kPa and 0.000107 kPa and 0.000103 kPa
311.2 K	0.000141 kPa and 0.000136 kPa and 0.000132 kPa
313.12 K	0.000176 kPa and 0.000172 kPa and 0.000171 kPa
315.21 K	0.000224 kPa and 0.000217 kPa and 0.000227 kPa
317.12 K	0.000287 kPa and 0.00028 kPa and 0.000276 kPa
319.2 K	0.000358 kPa and 0.00035 kPa and 0.000341 kPa
321.19 K	0.000456 kPa and 0.000446 kPa and 0.000437 kPa
323.12 K	0.000578 kPa and 0.000559 kPa and 0.000553 kPa
325.21 K	0.000724 kPa and 0.000694 kPa and 0.000673 kPa
327.17 K	0.000896 kPa and 0.000883 kPa and 0.000851 kPa
329.11 K	0.001115 kPa and 0.001099 kPa and 0.001081 kPa

Cc1cc(O)ccc1O [1,4-benzenediol, 2-methyl-]
Conditions	vapor or sublimation pressure
325.21 K	0.000147 kPa and 0.000144 kPa and 0.000138 kPa
327.15 K	0.000189 kPa and 0.000182 kPa and 0.000173 kPa
329.11 K	0.000239 kPa and 0.000229 kPa and 0.000226 kPa
331.19 K	0.000292 kPa and 0.000277 kPa and 0.000298 kPa
333.14 K	0.000375 kPa and 0.000361 kPa and 0.000348 kPa
335.11 K	0.000481 kPa and 0.000462 kPa and 0.000448 kPa
337.2 K	0.00061 kPa and 0.000607 kPa and 0.000569 kPa
339.14 K	0.000751 kPa and 0.000731 kPa and 0.000704 kPa
341.12 K	0.000957 kPa and 0.000916 kPa and 0.00089 kPa

Cc1cc(O)cc(O)c1 [5-methyl-1,3-benzenediol]
Conditions	vapor or sublimation pressure
322.2 K	0.000157 kPa and 0.000153 kPa
324.16 K	0.000199 kPa and 0.000196 kPa and 0.000193 kPa
326.1 K	0.000246 kPa and 0.000245 kPa
328.2 K	0.000304 kPa and 0.000311 kPa and 0.000303 kPa
330.14 K	0.000394 kPa and 0.000383 kPa and 0.000378 kPa
332.1 K	0.000499 kPa and 0.000485 kPa and 0.000482 kPa
334.19 K	0.000607 kPa and 0.000596 kPa and 0.000591 kPa
336.13 K	0.000766 kPa and 0.000754 kPa and 0.000734 kPa
338.1 K	0.000974 kPa and 0.000935 kPa and 0.000932 kPa

Cc1ccc(O)cc1O [1,3-benzenediol, 4-methyl-]
Conditions	vapor or sublimation pressure
317.2 K	0.000134 kPa and 0.000129 kPa and 0.000128 kPa
319.22 K	0.000175 kPa and 0.00017 kPa and 0.000166 kPa
321.11 K	0.00022 kPa and 0.000215 kPa and 0.000211 kPa
323.21 K	0.000266 kPa and 0.000262 kPa and 0.000282 kPa
325.23 K	0.000361 kPa and 0.000344 kPa and 0.000336 kPa
327.13 K	0.000451 kPa and 0.000438 kPa and 0.000432 kPa
329.21 K	0.000572 kPa and 0.000562 kPa and 0.000561 kPa
331.21 K	0.000742 kPa and 0.000724 kPa and 0.000719 kPa
333.12 K	0.000933 kPa and 0.000916 kPa and 0.000886 kPa
